Source: patent US4681969A, “Process for the preparation of an enantiomeric pair of isomers of cyfluthrin” (Imperial Chemical Industries PLC, priority 1984, dated 1987)
Values after ≈ are worked out from the molar mass of the structure shown. Like-named read-outs stand apart in the source and are kept apart here.

Columns and labels:
[1] = relative insecticidal efficacy (general statement); type: in vivo; conditions: Starting Material vs previously described mixture of cis and trans isomers; Racemate vs Starting Material
[2] = tested on: Heliothis virescens (tobacco budworm); test: LC50 against larval tobacco budworm; type: in vivo; conditions: for LC50: read-out: LC50 (concentration required to kill 50% of a population)
Description: The isomers were obtained by the h.p.l.c. technique shown in the next Example.

| SMILES | relative insecticidal efficacy [1] | LC50 ([2]; larval Heliothis virescens) [µg/mL] | efficacy relative to cyfluthrin ([2]; larval Heliothis virescens, from LC50 values) | LC50 ([2]; Heliothis virescens) [µg/mL] |
| --- | --- | --- | --- | --- |
| CC1(C)[C@H](C(=O)OC(C#N)c2ccc(F)c(Oc3ccccc3)c2)[C@@H]1C=C(Cl)Cl (mixture of isomers) [The Starting Material, (RS) -α-cyano-4-fluoro-3-phenoxybenzyl (1RS,cis)-3-(2,2-dichlorovinyl)-2,2-dimethylcyclopropane carboxylate] | potent insecticide of greater relative efficacy than the previously described mixture of cis and trans isomers | – | – | – |
| CC1(C)C(C=C(Cl)Cl)C1C(=O)OC(C#N)c1ccc(F)c(Oc2ccccc2)c1 (racemic) [Cyfluthrin, (R,S)-α-cyano-4-fluoro-3-phenoxybenzyl (1R,S-cis)/(1R,S-trans)-3-(2,2-dichlorovinyl)-2,2-dimethylcyclopropane carboxylate] | – | 7.1 (≈ 16.3 µM) | – | – |
| CC1(C)[C@H](C(=O)O[C@H](C#N)c2ccc(F)c(Oc3ccccc3)c2)[C@@H]1C=C(Cl)Cl (relative stereo) [1R,cis-S/1S,cis-R, (S)-α-cyano-4-fluoro-3-phenoxybenzyl (1R,cis)-3-(2,2-dichlorovinyl)-2,2-dimethylcyclopropanecarboxylate and its enantiomer, (R)-α-cyano-4-fluoro-3-phenoxybenzyl (1S,cis)-3-(2,2-dichlorovinyl)-2,2-dimethylcyclopropane carboxylate] | even more effective insecticidal product | 1.8 (≈ 4.14 µM) | about four times more efficacious than cyfluthrin | – |
| CC1(C)[C@H](C=C(Cl)Cl)[C@H]1C(=O)O[C@H](C#N)c1ccc(F)c(Oc2ccccc2)c1 (relative stereo) [1R,trans-S/1S,trans-R] | – | 3.6 (≈ 8.29 µM) | – | – |
| CC1(C)[C@H](C(=O)O[C@@H](C#N)c2ccc(F)c(Oc3ccccc3)c2)[C@@H]1C=C(Cl)Cl (relative stereo) [1S,cis-S/1R,cis-R, (R)-α-cyano-4-fluoro-3-phenoxybenzyl (1R,cis)-3-(2,2-dichlorovinyl)-2,2-dimethylcyclopropane carboxylate and (S)-α-cyano-4-fluoro-3-phenoxybenzyl (1S,cis)-3-(2,2-dichlorovinyl)-2,2-dimethylcyclopropane carboxylate] | – | – | – | 23.4 (≈ 53.9 µM) |
